Test results as given in ChEMBL document CHEMBL4725308, “MK-5204: An orally active β-1,3-glucan synthesis inhibitor” (Bioorg Med Chem Lett, 2020).
Values after ≈ are worked out from the molar mass of the structure shown.

Columns and labels:
Candida albicans [1] = test: Antifungal activity against Candida albicans MY1055 infected in DBA/2 mouse model assessed as log change in colony forming units in kidney at 6.5 mg/kg, po bid for 2 days and measured after 4 days by TOKA; type: functional; settings: time 2 day
Aspergillus fumigatus = test: Antifungal activity against Aspergillus fumigatus MF5668 assessed as fungal growth inhibition measured after 24 hrs by liquid microdilution method; type: functional; settings: read-out: MEC
Candida albicans [2] = test: Antifungal activity against Candida albicans MY1055 infected in DBA mouse model assessed as log change in colony forming units in kidney at 12.5 mg/kg, po bid for 2 days and measured after 4 days by TOKA; type: functional; settings: time 2 day
Candida albicans [3] = test: Antifungal activity against Candida albicans MY1055 infected in DBA/2 mouse model assessed as log change in colony forming units in kidney at 25 mg/kg, po bid for 2 days and measured after 4 days by TOKA; type: functional; settings: time 2 day
[4] = Oral bioavailability in mouse; type: ADME, organism-based; settings: in vivo
Candida albicans [5] = test: Antifungal activity against Candida albicans MY1055 assessed as fungal growth inhibition measured after 24 hrs in presence of mouse serum by liquid microdilution method; type: functional
Candida albicans [6] = test: Antifungal activity against Candida albicans MY1055 assessed as fungal growth inhibition measured after 24 hrs by liquid microdilution method; type: functional
[7] = Inhibition of beta-1,3-glucan synthase in Candida albicans MY1055 microsomal membrane using UDP-[3H]-glucose as substrate incubated for 2 hrs in presence of UTP by radioactivity-based assay; type: cell membranes

Compound | bioavailability [4] [%] | MIC (Candida albicans [5]) [µg/mL] | MIC (Candida albicans [6]) [µg/mL] | IC50 [7] [µg/mL] | Activity (Candida albicans [1]) [log CFU] | minimal effective concentration (Aspergillus fumigatus) [µg/mL] | Activity (Candida albicans [2]) [log CFU] | Activity (Candida albicans [3]) [log CFU]
CC(C)[C@@H](C)[C@@]1(C)CC[C@]2(C)[C@H]3CC[C@@H]4[C@@]5(COC[C@]4(C)[C@@H](OC[C@@](C)(C(C)C)N(C)C)[C@H](n4ncnc4C(N)=O)C5)C3=CC[C@@]2(C)[C@@H]1C(=O)O | 21 | 16 | 0.5 (≈ 0.704 µM) | 0.015 | -0.3 | < 0.03 | -1.4 | -1.8
CC(C)[C@@H](C)[C@@]1(C)CC[C@]2(C)[C@H]3CC[C@@H]4[C@@]5(COC[C@]4(C)[C@@H](OC[C@](C)(N)C(C)C)[C@H](n4ncnc4C(=O)NC4CC4)C5)C3=CC[C@@]2(C)[C@@H]1C(=O)O | 30 | 16 | 0.25 (≈ 0.346 µM) | 0.005 | -0.8 | < 0.03 | -0.9 | -2.1
CCCNC(=O)c1ncnn1[C@@H]1C[C@@]23COC[C@@](C)([C@@H]2CC[C@H]2C3=CC[C@@]3(C)[C@H](C(=O)O)[C@@](C)([C@H](C)C(C)C)CC[C@]23C)[C@H]1OC[C@](C)(N)C(C)C | 33 | 16 | 0.5 (≈ 0.691 µM) | 0.007 | -1.1 | < 0.03 | -1.6 | -2.2
CC(C)[C@@H](C)[C@@]1(C)CC[C@]2(C)[C@H]3CC[C@@H]4[C@@]5(COC[C@]4(C)[C@@H](OC[C@](C)(N)C(C)C)[C@H](n4ncnc4Br)C5)C3=CC[C@@]2(C)[C@@H]1C(=O)O | 33 | 8 | 0.5 (≈ 0.697 µM) | 0.002 | -0.2 | < 0.03 | -1.7 | -2.3
CCN[C@@](C)(CO[C@H]1[C@H](n2ncnc2C(N)=O)C[C@@]23COC[C@@]1(C)[C@@H]2CC[C@H]1C3=CC[C@@]2(C)[C@H](C(=O)O)[C@@](C)([C@H](C)C(C)C)CC[C@]12C)C(C)C | 17 | 16 | 0.25 (≈ 0.352 µM) | 0.011 | -1.1 | < 0.03 | -1.1 | -1.8
CC(C)[C@@H](C)[C@@]1(C)CC[C@]2(C)[C@H]3CC[C@@H]4[C@@]5(COC[C@]4(C)[C@@H](OC[C@](C)(N)C(C)C)[C@H](n4ncnc4S(N)(=O)=O)C5)C3=CC[C@@]2(C)[C@@H]1C(=O)O |  | 8 | 0.25 (≈ 0.348 µM) | 0.006 | -0.8 | < 0.03 | -0.8 | -0.7
CCCN[C@@](C)(CO[C@H]1[C@H](n2ncnc2C(N)=O)C[C@@]23COC[C@@]1(C)[C@@H]2CC[C@H]1C3=CC[C@@]2(C)[C@H](C(=O)O)[C@@](C)([C@H](C)C(C)C)CC[C@]12C)C(C)C | 19 | 32 | 0.5 (≈ 0.691 µM) | 0.015 | -0.7 | < 0.03 | -0.8 | -1.9
CC(C)[C@@H](C)[C@@]1(C)CC[C@]2(C)[C@H]3CC[C@@H]4[C@@]5(COC[C@]4(C)[C@@H](OC[C@](C)(N)C(C)C)[C@H](n4ncnc4Cl)C5)C3=CC[C@@]2(C)[C@@H]1C(=O)O | 9 | 8 | 0.06 (≈ 0.0891 µM) | 0.003 | -1.2 | < 0.03 | -2.2 | -1.9
CC(C)[C@@H](C)[C@@]1(C)CC[C@]2(C)[C@H]3CC[C@@H]4[C@@]5(COC[C@]4(C)[C@@H](OC[C@](C)(N)C(C)C)[C@H](n4ncnc4C#N)C5)C3=CC[C@@]2(C)[C@@H]1C(=O)O |  | 8 | 0.125 (≈ 0.188 µM) | 0.006 | -0.9 | < 0.03 | 0 | -1.1
CC(C)NC(=O)c1ncnn1[C@@H]1C[C@@]23COC[C@@](C)([C@@H]2CC[C@H]2C3=CC[C@@]3(C)[C@H](C(=O)O)[C@@](C)([C@H](C)C(C)C)CC[C@]23C)[C@H]1OC[C@](C)(N)C(C)C | 10 | 16 | 0.25 (≈ 0.345 µM) | 0.01 | -0.4 | < 0.03 | -1.8 | -2.3
CC(C)[C@@H](C)[C@@]1(C)CC[C@]2(C)[C@H]3CC[C@@H]4[C@@]5(COC[C@]4(C)[C@@H](OC[C@H](N)C(C)(C)C)[C@H](n4ncnc4C(N)=O)C5)C3=CC[C@@]2(C)[C@@H]1C(=O)O | 10 | 8 | 0.25 (≈ 0.367 µM) | 0.008 | -1.9 | < 0.03 | -1.7 | -2.6
CC(C)[C@@H](C)[C@@]1(C)CC[C@]2(C)[C@H]3CC[C@@H]4[C@@]5(COC[C@]4(C)[C@@H](OC[C@](C)(N)C(C)C)[C@H](n4ncnc4C(=O)N(C)C)C5)C3=CC[C@@]2(C)[C@@H]1C(=O)O | 16 | 8 | 0.25 (≈ 0.352 µM) | 0.009 | -1 | < 0.03 | -1.3 | -2.4
CCC(N)(CC)CO[C@H]1[C@H](n2ncnc2C(N)=O)C[C@@]23COC[C@@]1(C)[C@@H]2CC[C@H]1C3=CC[C@@]2(C)[C@H](C(=O)O)[C@@](C)([C@H](C)C(C)C)CC[C@]12C | 3 | 16 | 0.125 (≈ 0.183 µM) | 0.007 | -0.2 | < 0.03 | -0.6 | -1.9

The remaining compounds from weak to strong by MIC (Candida albicans [5]), led by results:

bioavailability [4] [%] | MIC (Candida albicans [5]) [µg/mL] | MIC (Candida albicans [6]) [µg/mL] | IC50 [7] [µg/mL] | Compound | Activity (Candida albicans [1]) [log CFU] | minimal effective concentration (Aspergillus fumigatus) [µg/mL] | Activity (Candida albicans [2]) [log CFU] | Activity (Candida albicans [3]) [log CFU]
 | 16 | 0.06 (≈ 0.0865 µM) | 0.01 | CC(C)[C@@H](C)[C@@]1(C)CC[C@]2(C)[C@H]3CC[C@@H]4[C@@]5(COC[C@]4(C)[C@@H](OCC4(N)CCCCC4)[C@H](n4ncnc4C(N)=O)C5)C3=CC[C@@]2(C)[C@@H]1C(=O)O | -0.5 | < 0.03 | -1.8 | -1.8
13 | 16 | 0.25 (≈ 0.352 µM) | 0.008 | CCNC(=O)c1ncnn1[C@@H]1C[C@@]23COC[C@@](C)([C@@H]2CC[C@H]2C3=CC[C@@]3(C)[C@H](C(=O)O)[C@@](C)([C@H](C)C(C)C)CC[C@]23C)[C@H]1OC[C@](C)(N)C(C)C | -0.8 | < 0.03 | -1.4 | -2.8
5 | 8 | 0.25 (≈ 0.359 µM) | 0.005 | CN[C@@](C)(CO[C@H]1[C@H](n2ncnc2C(N)=O)C[C@@]23COC[C@@]1(C)[C@@H]2CC[C@H]1C3=CC[C@@]2(C)[C@H](C(=O)O)[C@@](C)([C@H](C)C(C)C)CC[C@]12C)C(C)C | -0.4 | < 0.03 | -0.5 | -1.2
5 | 8 | 0.125 (≈ 0.18 µM) | 0.004 | CNC(=O)c1ncnn1[C@@H]1C[C@@]23COC[C@@](C)([C@@H]2CC[C@H]2C3=CC[C@@]3(C)[C@H](C(=O)O)[C@@](C)([C@H](C)C(C)C)CC[C@]23C)[C@H]1OC[C@](C)(N)C(C)C | -0.6 | < 0.03 | -1.6 | -2.6
7 | 2 | < 0.03 | 0.005 | CC(C)[C@@H](C)[C@@]1(C)CC[C@]2(C)[C@H]3CC[C@@H]4[C@@]5(COC[C@]4(C)[C@@H](OC[C@](C)(N)C(C)C)[C@H](n4ncnc4C(N)=O)C5)C3=CC[C@@]2(C)[C@@H]1C(=O)O | -0.9 | < 0.03 | -0.2 | -2.5
